Laboratory results from patent US20060165715A1, “Gp41 inhibitor” (priority 2001, published 2006).

Legend:
[1] = tested on: HIV Env-mediated cell fusion; test: vaccinia virus-based reporter gene assay of HIV Env-mediated cell fusion (B-SC-1 target and effector cells, soluble CD4); set-up: species or system HIV-1; conditions: relative to both N35CCG-N13 and NCCG-gp41
[2] = molecular target: HIV-1 (LAV) Env protein on effector cells (gp120/gp41; gp41 pre-hairpin fusion intermediate) (HIV-1 (LAV)) (UniProt P03377); test: cell-based or functional assay
HIV-1 Env = conditions: from Ferrer et al., Nature Struct. Biol. 1999, given for comparison; read-out: IC50, fusion inhibitory activity; cited from earlier work
[3] = molecular target: HIV-1 (LAV) Env protein on effector cells (gp120/gp41; gp41 pre-hairpin fusion intermediate) (HIV-1 (LAV), UniProt P03377 517-861); test: cell-based or functional assay

## N34CCG (MGSSHHHHHHSSGLVPRGSHMSGIVQQQNNLLRAIEAQQHLLQLTVWGIKQCCGR)
[1]
  fold lower inhibitory activity: 5-6 fold

## N36 peptide (residues 546-581 of HIV-1 Env) (from UniProt P04578 546-581)
[2]
  IC50, inhibition of HIV-1 Env-mediated cell fusion (vaccinia reporter gene assay, beta-galactosidase): 16400 nM

## enfuvirtide
HIV-1 Env
  IC50: ~50 nM

B1: 6H-N34CCG, disulfide-linked trimer (designed binder)
chain: MGSSHHHHHHSSGLVPRGSHMSGIVQQQNNLLRAIEAQQHLLQLTVWGIKQCCGR
[3]
  IC50, inhibition of HIV Env-mediated cell fusion (vaccinia reporter gene assay, beta-galactosidase): 96 nM
